Each structure is given as a SMILES string. Where only a bound is given, the exact number is not on record here.

For orientation: melting point means the temperature, or range, at which the solid turns liquid. As to `COc1nc(C)cnc1NS(=O)(=O)c1cccnc1-c1ccc(N(C)C)cc1`, the melting point is 183 to 184 °C.

The compound `Nc1c(F)c(F)c(F)c2c1c(=O)c(C(=O)O)cn2C1CC1` showed a melting point of 269 to 271 °C.

`CCN(CC)CCOc1ccc(N(C(=O)Nc2ccccc2)C2=NN(c3ccccc3)CC2)cc1` displayed a melting point of 140 to 141 °C.

For the compound `CN1C(=O)CC[C@]2(C)c3ccc(CC(=O)Nc4ccccc4)cc3CC[C@@H]12`, the melting point was in the range of 192 to 195 °C.

For `CCOC(=O)c1cc(N=c2sc(=S)n3n2CCCC3)c(F)cc1F`, the melting point lay in the range of 91 to 92 °C.

For `Nc1cccc(Oc2cccc(Oc3cccc(N)c3)c2)c1`, the melting point lay in the range of 105 to 107 °C.

`O=C(c1ccc(Cl)cc1)C(Cc1ccc(Cl)cc1)c1cccnc1` (centres undefined) registered a melting point of 98 to 99 °C.

The compound `COC(=O)c1cnn2c(C(F)(F)F)cc(O)nc12` registered a melting point of 149 to 150 °C.

The compound `CCCCc1nc(Cl)c(Cl)n1Cc1ccc(-n2cccc2C(=O)O)cc1` returned a melting point of 181 to 182 °C.

`C[C@@H](O)[C@H](NC(=O)Cc1ccccc1)C(=O)O` showed a melting point of 118 to 120 °C.

`CC(=O)N1CCNC1=Nc1ccc(Cl)cc1Cl` gave a melting point of 168 to 169 °C.

Regarding `Clc1ccccc1Cc1cccc2[nH]ccc12`, the melting point fell in the range of 76 to 77 °C.

`C#CCONC(=O)c1nc(-c2ccc(Cl)c(OC)c2F)cc(N)c1Cl` returned a melting point of 180 to 183 °C.

`C=CC(=O)OCCOc1ccc(-c2cccc(F)c2F)cc1` displayed a melting point of 47.4 to 50.1 °C.

`NS(=O)(=O)c1ccc(-c2cccc(-c3nc(-c4ccc(Cl)c(Cl)c4)cc(C(F)(F)F)n3)c2)s1` gave a melting point of 203 °C.

In turn, `CC(C)c1cc(O)c(O)c(C(=O)O)c1` yielded a melting point of 151 to 152 °C.

`O=Cc1cccc(-c2cccc3ccccc23)n1` displayed a melting point of 65 to 66 °C.

`COc1cc2c(cc1Nc1ncc(Cl)c(Nc3ccccc3S(C)(=O)=O)n1)CCN(CC(N)=O)CC2` gave a melting point of 111 to 123 °C.

Turning to `CCCCOc1ccc(S(=O)(=O)C2(C(=O)NO)CCN(Cc3ccc(F)cc3)CC2)cc1`, the melting point was found to be 112 °C.

`Nn1c(=O)cc2n(C3CC3)c3cc(N4CCNCC4)c(F)cc3n2c1=O`: the melting point fell in the range of 232 to 234 °C.

Consider `COc1c(CC#N)c2c(c3c1OC(C)(C)C3)C(c1cccc(C(=O)NC3CCCCNC3=O)c1)=NC(C)(C)C2` (centres undefined), for which the melting point is 130 to 132 °C.

Compound `Clc1ccc2nncc(Cl)c2c1` yielded a melting point of 111 to 113 °C.

For the compound `O=C1NCCNC1c1cn(Cc2ccc(Cl)cc2)c2ccccc12` (centres undefined), the melting point is 195 °C.

`Oc1ccc(C2=C(c3ccc(OCCCCCSCCCC(F)(F)C(F)(F)F)cc3)c3ccc(O)cc3CCC2)cc1` returned a melting point of 157 to 158 °C.

Regarding `O=CNc1ccc(OCCNCC(O)c2ccc(O)cc2)cc1` (centres undefined), the melting point was 164 to 165 °C.

Compound `COc1ccc(C(=O)Nc2c(C)c(C)c3c(c2C)C(c2ccc(C)cc2)C(C)(C)O3)cc1` (centres undefined) came in with a melting point of 161 to 163 °C.

Turning to `CC1(C)CCC2(Cc3ccc(Cl)cc3)OC12CO` (centres undefined), the melting point lay within 36 to 38 °C.

Turning to `CCOC(=O)Cc1nc(-c2ccc(OC)cc2)oc1-c1ccco1`, the melting point lay within 64 to 66 °C.

`CS(=O)(=O)Nc1cc(Cl)c(Cl)cc1Cl` had a melting point of 144 to 145 °C.

As for `COC(=O)c1[nH]c(=O)n(C(=O)NCCCN2CCC(C(=O)OC)(c3ccccc3)CC2)c1-c1ccc(F)c(F)c1`, the melting point fell in the range of 134 to 136 °C.

Regarding `O=C1C[C@@H]2O[C@@H](CS(=O)(=O)c3ccccc3)CN12` (racemic), the melting point was 144 to 146 °C.

The compound `Cc1ccc(S(=O)(=O)NC(=O)Nc2nc(-c3ccccc3)c(-c3ccc(=O)n(C(C)C)n3)s2)cc1` gave a melting point of 172 to 174 °C.

The compound `CCNC(=O)c1ccc(-c2ccc(-c3ccccc3)c(-c3ccc4c(c3)C(C)(C)CCC4(C)C)c2)cc1` yielded a melting point of 183 °C.

Regarding `Clc1ccc(Oc2cncc3sc(C4=NCCN4)cc23)cc1`, the melting point was 154 to 155 °C.

`O=C(Nc1ccc(Oc2ccnc(NCC3CC3)n2)c2ccccc12)c1cc(F)cc(N2CCCCC2)c1`: the melting point lay within 117 to 119 °C.

For the compound `CCCCOCCOc1ccc(-c2ccc(N(C)CCOC)c(C=CC(=O)O)c2)cc1`, the melting point lay within 86.4 to 87.4 °C.

The compound `CNC(=N[N+](=O)[O-])N(C)Cc1ccc(Cl)nc1` gave a melting point of 136 to 137 °C.

The compound `CCCCN(CCCC)c1ccc(C=CC2=C(C#N)C(=C(C#N)C#N)OC2(c2ccccc2)C(F)(F)F)c(OC)c1` (centres undefined) had a melting point of 191 to 194 °C.

Regarding `CSCCOC(=O)CSc1cc(N=c2sc(=O)n3n2CCCC3)ccc1Cl`, the melting point lay within 57 to 58 °C.

On to `CSC1NC(=O)N(C(C)C)C(=O)N1N=C(C)C` (centres undefined), for which the melting point lay within 110 to 112 °C.

With `Cc1nc(CCO)c2c(n1)N(N)C(=O)C(C)(C)O2`, the melting point fell in the range of 168 to 170 °C.

For `CN(C)S(=O)(=O)c1cc(-c2csc(=Nc3ccccc3)n2C)ccc1Cl`, the melting point came to 180 °C.

`CS(=O)(=O)c1ccc(C(=O)O)c(F)c1` yielded a melting point of 187 to 188 °C.

Compound `O=C1COc2ccc(C3=Nc4ccccc4SC3c3ccc(Cl)cc3)cc2N1` (centres undefined) displayed a melting point of 153 to 155 °C.

`N#CC1=C(C#N)Sc2nc3cc(Cl)ccc3nc2S1` returned a melting point of 278 to 280 °C.

For the compound `CCOC(=O)C(=CNc1cc(O)cc(O)c1)C(=O)OCC`, the melting point is 190 to 192 °C.

In the case of `CC1Cc2cc(S(N)(=O)=O)cc(C(=O)O)c2O1` (centres undefined), the melting point was 245 to 246 °C.

In turn, `CC(C)CNc1nccc(Oc2ccc(NC(=O)c3cc(F)cc(N4CCOCC4)c3)c3ccccc23)n1` yielded a melting point of 96 to 97 °C.

In turn, `COc1ccc2c(c1)CCC2n1cc[nH]c1=S` (centres undefined) gave a melting point of 195 to 196 °C.

Compound `COc1cc(OC)nc(Oc2cccc(Oc3nc(OC)cc(OC)n3)c2CO)n1` yielded a melting point of 122 °C.

Compound `CCc1ccc(Cn2cc(-c3ccc(OC)cc3)ccc2=O)cn1` came in with a melting point of 130 °C.

The compound `C#CCNc1nc(N(C2CC(C)(C)N(O)C(C)(C)C2)C2CC(C)(C)N(O)C(C)(C)C2)nc(N(C2CC(C)(C)N(O)C(C)(C)C2)C2CC(C)(C)N(O)C(C)(C)C2)n1` showed a melting point of 249 to 252 °C.

The compound `CCCc1nc2c(N)nc3ccccc3c2n1CCCC(=O)N1CCOCC1` came in with a melting point of 200 to 202 °C.

`O=c1[nH]c2ccc(F)cc2c(=O)o1` displayed a melting point of 240 °C.

On to `COC(=O)c1c(SC)c2cc(OC)ccc2n1C`, for which the melting point was 89 to 91 °C.

In turn, `CC(C)=NOCc1nc2c(N)nc3cccnc3c2n1CCCNC(=O)NC1CCCCC1` returned a melting point of 207 to 208 °C.

On to `CC(C)(C)N(NC(=O)c1cnccn1)C(=O)c1ccccc1`, for which the melting point lay within 181 to 183 °C.

Compound `CC(C)(C)OC(=O)N1CCNC(=O)C1Cc1ccc(OCc2ccccc2)cc1` (centres undefined) returned a melting point of 145 to 147 °C.

As for `C=C1CC(C(=O)O)NC(C(=O)O)C1` (centres undefined), the melting point is greater than 250 °C.

For the compound `c1ccc2c3c([nH]c2c1)CCCSCC3`, the melting point was in the range of 106 to 107 °C.

On to `CCc1nc2c(c(C)c(C)n3nnnc23)n1CCOCCNC(=O)CCCCl`, for which the melting point was 149 to 151 °C.

In turn, `CN1CC[C@@H](c2c(O)cc(O)c3c(=O)cc(-c4cccc(Cl)c4)oc23)[C@@H]1CO` registered a melting point of 146 to 147 °C.

`CC(C)(C)c1ccc(O)c(C=NO)c1` yielded a melting point of 116 to 118 °C.

Compound `CSc1ccc(CC2C(C)=Cc3cc(F)ccc32)cc1` (centres undefined) came in with a melting point of 58 to 59 °C.

On to `O=C1NC(C(Cl)(Cl)Cl)Nc2ccccc21` (centres undefined), for which the melting point lay in the range of 201 to 202 °C.

For `Cc1cc(COc2cccc3c2CN(C2CCC(=O)NC2=O)C3=O)on1` (centres undefined), the melting point was 278 to 280 °C.

For the compound `CCC(CC)c1ccc(Cl)c2nc3n(c12)CCCCN3c1ccc(Cl)cc1`, the melting point lay in the range of 133 to 135 °C.

Compound `O=C(CCO)NCc1ccc2ccn(C3CCN(CCc4ccccc4F)CC3)c2c1` yielded a melting point of 58 to 59 °C.

Turning to `O=C(Nc1ccc(CCl)cc1)C1=Cc2cc(-c3ccccc3)ccc2CC1`, the melting point was in the range of 176 to 177 °C.

Regarding `COc1ccc(C(=O)c2ccc(OC)cc2F)c(C)c1`, the melting point lay in the range of 88 to 90 °C.

For the compound `CCOC(=O)C=CC(=O)Nc1ccc2c(Nc3cccc(Br)c3)ncnc2c1`, the melting point was greater than 260 °C.

Consider `CC1(C)OCC(C)(C)c2cc(OS(C)(=O)=O)ccc2O1`, for which the melting point was 65 to 67 °C.

Compound `CCCCCCCCCCS(=O)(=O)Nc1cc(C(=O)Nc2ccccc2)ccc1OC` registered a melting point of 160 to 161 °C.

Take `CC(C)(C)C(=O)c1ccc(C(=O)N(C(=O)c2ccc(C(=O)C(C)(C)C)cc2)C(=O)c2ccccc2C(=O)C(C)(C)C)cc1`: the melting point lay within 185 to 188 °C.

`CC(=O)Nc1ccccc1N(CC(=O)OC(C)(C)C)C(=O)CNC(=O)Nc1cccc(C)c1` gave a melting point of 185 °C.

As for `Cc1ccc2c(c1)c1cc(-c3ccc(OCC#N)cc3)c(=O)n(C)c1n2C`, the melting point is 195 to 196 °C.

Take `COc1cc2c(C)csc2c(Cl)c1Cl`: the melting point was in the range of 122 to 124 °C.

For the compound `[N-]=[N+]=NCc1cc(C(N)C(=O)O)ccc1O` (centres undefined), the melting point is greater than 300 °C.

As to `CCCCc1oc2ccccc2c1C(=O)N(C)Cc1ccc2c(Br)c(OCc3nnn[nH]3)ccc2c1`, the melting point was in the range of 190 to 194 °C.

`COc1ccc(-c2nc(N(C)C)c3c(C)c(C#N)sc3n2)cc1OC` gave a melting point of 198 to 200 °C.

`Cc1ccc2c(c1F)N(C1CC1)CNS2(=O)=O`: the melting point fell in the range of 135 to 138 °C.

In the case of `O=C1CCCN1C(=O)Oc1ccc(F)cc1`, the melting point was in the range of 89 to 90 °C.

`CNC(=O)N1CCC(Oc2c(F)c(F)c(F)c(F)c2F)CC1` gave a melting point of 107 to 110 °C.

Consider `CCC(OC)C(=O)Nc1ccc(C2=NNC(=O)CC2C)cc1` (centres undefined), for which the melting point was 151 to 152 °C.

`O=C(O)CSC(F)(F)F`: the melting point is 130 °C.

With `CN(C)CCCn1c2c(c3ccccc31)CC(O)CC2` (centres undefined), the melting point fell in the range of 174 to 176 °C.

`C[C@]12CC[C@H](O)CC1=CCC1C2CC[C@@]2(C)C1CC[C@@H]2C1=CC(=O)OC1` (some centres undefined) showed a melting point of 286 to 287 °C.

In turn, `O=C(C=C1CCCN1)c1ccc(Cl)c(Cl)c1` showed a melting point of 208 to 209 °C.

`O=C(O)c1cccc(-c2cccc(OCc3ccc(Cl)cc3Cl)n2)c1` displayed a melting point of 186 to 187 °C.
